Measurements published in the supplement of paper PMC10307832.

Key:
Assay in all cases: relative viability (nuclei count vs DMSO), 5 days (fraction); higher = more cells survive
IPA-3 + Palbociclib = compound: C1=CC=C2C(=C1)C=CC(=C2SSC3=C(C=CC4=CC=CC=C43)O)O [IPA-3] + CC(=O)c1c(C)c2cnc(Nc3ccc(N4CCNCC4)cn3)nc2n(C2CCCC2)c1=O [Palbociclib] (partner 0.5 µM)
Procedure, shortened: (§1)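 Lung cancer cell lines in 1536-well plates were dosed by pin tool the day after seeding, either with one drug alone or with a fixed anchor-drug dose plus five library-drug doses (not always all listed) in √10 steps. After 5 days, cells were fixed and their nuclei stained in one step (final 0.05% Triton X-100, 1% formaldehyde, 1 ug/ml Hoechst), then counted on 4× images. Relative viability is the nuclei count in treated wells divided by that in vehicle wells. Values are medians of duplicate plates.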

Doramapimod + Tozasertib = compound: Cc1ccc(-n2nc(C(C)(C)C)cc2NC(=O)Nc2ccc(OCCN3CCOCC3)c3ccccc23)cc1 [Doramapimod] + Cc1cc(Nc2cc(N3CCN(C)CC3)nc(Sc3ccc(NC(=O)C4CC4)cc3)n2)n[nH]1 [Tozasertib] (partner 0.1 µM)
Procedure, shortened: as §1

RAF265 + Navitoclax = compound: Cn1c(Nc2ccc(C(F)(F)F)cc2)nc2cc(Oc3ccnc(-c4ncc(C(F)(F)F)[nH]4)c3)ccc21 [RAF265] + CC1(C)CCC(c2ccc(Cl)cc2)=C(CN2CCN(c3ccc(C(=O)NS(=O)(=O)c4ccc(N[C@H](CCN5CCOCC5)CSc5ccccc5)c(S(=O)(=O)C(F)(F)F)c4)cc3)CC2)C1 [Navitoclax] (partner 0.5 µM)
Procedure, shortened: as §1

RAF265 + AZD7762 = compound: Cn1c(Nc2ccc(C(F)(F)F)cc2)nc2cc(Oc3ccnc(-c4ncc(C(F)(F)F)[nH]4)c3)ccc21 [RAF265] + NC(=O)Nc1cc(-c2cccc(F)c2)sc1C(=O)N[C@H]1CCCNC1 [AZD7762] (partner 0.2 µM)
Procedure, shortened: as §1

Row | Cell Line | relative viability (IPA-3 + Palbociclib; first compound 0.2 µM) | relative viability (IPA-3 + Palbociclib; first compound 0.6325 µM) | relative viability (IPA-3 + Palbociclib; first compound 2 µM) | relative viability (IPA-3 + Palbociclib; first compound 6.325 µM) | relative viability (IPA-3 + Palbociclib; first compound 20 µM) | relative viability (Doramapimod + Tozasertib; first compound 0.02 µM) | relative viability (Doramapimod + Tozasertib; first compound 0.06325 µM) | relative viability (Doramapimod + Tozasertib; first compound 0.2 µM) | relative viability (Doramapimod + Tozasertib; first compound 0.6325 µM) | relative viability (Doramapimod + Tozasertib; first compound 2 µM) | relative viability (RAF265 + Navitoclax; first compound 0.01 µM) | relative viability (RAF265 + Navitoclax; first compound 0.03162 µM) | relative viability (RAF265 + Navitoclax; first compound 0.1 µM) | relative viability (RAF265 + Navitoclax; first compound 0.3162 µM) | relative viability (RAF265 + Navitoclax; first compound 1 µM) | relative viability (RAF265 + AZD7762; first compound 0.01 µM) | relative viability (RAF265 + AZD7762; first compound 0.03162 µM) | relative viability (RAF265 + AZD7762; first compound 0.1 µM) | relative viability (RAF265 + AZD7762; first compound 0.3162 µM) | relative viability (RAF265 + AZD7762; first compound 1 µM)
1 | LC-2-ad | 0.545 | 0.495 | 0.479 | 0.451 | 0.518 | 0.447 | 0.444 | 0.448 | 0.413 | 0.484 | 0.527 | 0.283 | 0.311 | 0.162 | 0.115 | 0.848 | 0.933 | 0.914 | 0.721 | 0.669
2 | LCLC-97TM1 | 0.23 | 0.2 | 0.226 | 0.185 | 0.177 | 0.22 | 0.228 | 0.21 | 0.266 | 0.142 | 0.512 | 0.356 | 0.461 | 0.191 | 0.135 | 0.203 | 0.323 | 0.259 | 0.167 | 0.0766
3 | LK-2 | 0.847 | 0.643 | 0.709 | 0.818 | 0.706 | 0.186 | 0.182 | 0.18 | 0.179 | 0.192 | 0.777 | 0.791 | 0.832 | 0.633 | 0.57 | 0.506 | 0.432 | 0.537 | 0.448 | 0.371
4 | LOU-NH91 | 0.535 | 0.525 | 0.552 | 0.511 | 0.572 | 0.715 | 0.66 | 0.798 | 0.76 | 0.488 | 0.731 | 0.594 | 0.757 | 0.389 | 0.387 | 0.756 | 0.71 | 0.687 | 0.631 | 0.551
5 | LU99A | 0.437 | 0.376 | 0.425 | 0.452 | 0.394 | 0.307 | 0.248 | 0.294 | 0.252 | 0.264 | 0.703 | 0.688 | 0.613 | 0.514 | 0.325 | 0.419 | 0.344 | 0.404 | 0.325 | 0.235
6 | LXF-289 | 0.606 | 0.579 | 0.556 | 0.568 | 0.642 | 0.207 | 0.177 | 0.177 | 0.19 | 0.203 | 0.919 | 0.905 | 0.935 | 0.818 | 0.807 | 1.12 | 1.26 | 1.24 | 0.849 | 0.871
7 | NCI-H23 | 0.477 | 0.4 | 0.486 | 0.486 | 0.542 | 0.622 | 0.34 | 0.366 | 0.433 | 0.326 | 0.886 | 0.825 | 0.775 | 0.553 | 0.317 | 0.309 | 0.263 | 0.228 | 0.182 | 0.169
8 | NCI-H322M | 0.48 | 0.452 | 0.433 | 0.525 | 0.514 | 0.519 | 0.487 | 0.532 | 0.497 | 0.531 | 1.18 | 1.14 | 1.15 | 0.381 | 0.274 | 0.55 | 0.717 | 0.493 | 0.381 | 0.404
9 | NCI-H441 | 0.244 | 0.213 | 0.198 | 0.169 | 0.185 | 0.719 | 0.63 | 0.576 |  | 0.622 | 0.582 |  | 0.515 | 0.5 | 0.776 | 1.1 | 1.08 | 1.2 | 0.967 | 0.936
10 | NCI-H460 | 0.203 | 0.108 | 0.145 | 0.19 | 0.057 | 0.455 | 0.517 | 0.49 | 0.673 | 0.372 | 1.17 | 1.08 | 1.21 |  | 0.852 | 0.586 | 0.666 | 0.775 | 0.598 | 0.38
11 | NCI-H596 |  |  |  |  |  | 0.939 | 0.862 | 1.11 | 0.982 | 0.883 | 1.02 | 0.862 | 1.03 | 1.06 | 0.576 | 1.29 | 1.08 | 1.03 | 0.877 | 0.548
12 | NCI-H647 | 0.561 | 0.373 | 0.371 | 0.206 | 0.0359 | 0.317 | 0.288 | 0.328 | 0.24 | 0.327 | 1.2 | 0.954 | 0.977 | 0.895 | 0.458 | 0.578 | 0.452 | 0.404 | 0.332 | 0.262
13 | NCI-H727 | 0.671 | 0.784 | 0.644 | 0.63 | 0.625 | 0.633 | 0.644 | 0.559 | 0.702 | 0.536 | 0.531 | 0.539 | 0.512 | 0.363 | 0.229 | 0.471 | 0.67 | 0.576 | 0.494 | 0.606
14 | NCI-H1703 |  |  |  |  |  |  |  |  |  |  | 1.16 | 0.95 | 0.848 | 0.576 | 0.283 | 0.132 | 0.133 | 0.126 | 0.142 | 0.099
15 | NCI-H1792 | 0.684 | 0.658 | 0.662 | 0.677 | 0.731 |  |  |  |  |  | 0.637 | 0.597 | 0.641 | 0.541 | 0.459 | 0.638 | 0.568 | 0.475 | 0.11 | 0.0984
16 | NCI-H2342 | 0.6 | 0.479 | 0.553 | 0.57 | 0.575 | 0.494 | 0.508 | 0.554 | 0.584 | 0.621 |  |  |  |  |  | 0.507 | 0.558 | 0.539 | 0.498 | 0.474
17 | SW 900 | 0.536 | 0.518 | 0.545 | 0.49 | 0.587 | 0.538 | 0.584 | 0.618 | 0.479 | 0.481 |  |  |  |  |  | 0.709 | 0.483 | 0.671 | 0.466 | 0.348
